Activity calls are given as the source filed them. The rule behind the calls is not given here.
Key:
Staphylococcus aureus [1] = assay: Antibacterial activity against methicillin-resistant Staphylococcus aureus at 50 ug/well; type: functional
Candida albicans [2] = assay: Antimicrobial activity against Candida albicans at 50 ug/well; type: functional
Enterococcus faecium [3] = assay: Antibacterial activity against vancomycin-resistant Enterococcus faecium at 50 ug/well; type: functional
Staphylococcus aureus [4] = assay: Antibacterial activity against methicillin-sensitive Staphylococcus aureus at 50 ug/well; type: functional
Staphylococcus aureus [5] = assay: Antibacterial activity against methicillin-resistant Staphylococcus aureus at 200 ug/well; type: functional, organism-based
Candida albicans [6] = assay: Antimicrobial activity against Candida albicans at 200 ug/well; type: functional, organism-based
Staphylococcus aureus [7] = assay: Antibacterial activity against methicillin-sensitive Staphylococcus aureus at 200 ug/well; type: functional, organism-based
Enterococcus faecium [8] = assay: Antibacterial activity against vancomycin-resistant Enterococcus faecium at 200 ug/well; type: functional, organism-based

Row | Compound | zone of inhibition at 50 µg/disc (Staphylococcus aureus [1]; read-out: IZ) [mm] | zone of inhibition at 50 µg/disc (Candida albicans [2]; read-out: IZ) [mm] | zone of inhibition at 50 µg/disc (Enterococcus faecium [3]; read-out: IZ) [mm] | zone of inhibition at 50 µg/disc (Staphylococcus aureus [4]; read-out: IZ) [mm] | Activity (Staphylococcus aureus [1]) | Activity (Candida albicans [2]) | Activity (Enterococcus faecium [3]) | Activity (Staphylococcus aureus [4]) | Activity (Staphylococcus aureus [5]) | Activity (Candida albicans [6]) | Activity (Staphylococcus aureus [7]) | Activity (Enterococcus faecium [8])
1 | C[C@H]1CCC[C@@H](O)[C@]2(O)C(=O)C=C[C@@H]3OC(/C=C/C=C/C=C/C(=O)O)=C(C(=O)O1)[C@@H]32 [DICTYOSPHAERIC ACID A] | 12 | 7 | 7 | 11 | – | – | – | – | – | – | – | –
2 | C[C@H]1CCC[C@@H](O)[C@]2(O)C(=O)C[C@H](O)[C@@H]3OC(/C=C/C=C/C=C/C(=O)O)=C(C(=O)O1)[C@@H]32 | – | – | – | – | inactive | inactive | inactive | inactive | – | – | – | –
3 | COc1cc(CO)cc2c1C(=O)c1c(O)cc(O)cc1C2=O | – | – | – | – | inactive | inactive | inactive | inactive | inactive | inactive | inactive | inactive

— ChEMBL document CHEMBL1148207, “Dictyosphaeric acids A and B: new decalactones from an undescribed Penicillium sp. obtained from the alga Dictyosphaeria versluyii” (2004)
